pIC50: −log10 of the molar value. Where a name gives a salt, the structure may show the parent alone.
Target: PDE4D7 (Homo sapiens (Human), UniProt Q08499)
Settings: read-out: PDE4D7 IC50

Sequence of PDE4D7 (Q08499 other isoform, or with tags, fused parts or gaps): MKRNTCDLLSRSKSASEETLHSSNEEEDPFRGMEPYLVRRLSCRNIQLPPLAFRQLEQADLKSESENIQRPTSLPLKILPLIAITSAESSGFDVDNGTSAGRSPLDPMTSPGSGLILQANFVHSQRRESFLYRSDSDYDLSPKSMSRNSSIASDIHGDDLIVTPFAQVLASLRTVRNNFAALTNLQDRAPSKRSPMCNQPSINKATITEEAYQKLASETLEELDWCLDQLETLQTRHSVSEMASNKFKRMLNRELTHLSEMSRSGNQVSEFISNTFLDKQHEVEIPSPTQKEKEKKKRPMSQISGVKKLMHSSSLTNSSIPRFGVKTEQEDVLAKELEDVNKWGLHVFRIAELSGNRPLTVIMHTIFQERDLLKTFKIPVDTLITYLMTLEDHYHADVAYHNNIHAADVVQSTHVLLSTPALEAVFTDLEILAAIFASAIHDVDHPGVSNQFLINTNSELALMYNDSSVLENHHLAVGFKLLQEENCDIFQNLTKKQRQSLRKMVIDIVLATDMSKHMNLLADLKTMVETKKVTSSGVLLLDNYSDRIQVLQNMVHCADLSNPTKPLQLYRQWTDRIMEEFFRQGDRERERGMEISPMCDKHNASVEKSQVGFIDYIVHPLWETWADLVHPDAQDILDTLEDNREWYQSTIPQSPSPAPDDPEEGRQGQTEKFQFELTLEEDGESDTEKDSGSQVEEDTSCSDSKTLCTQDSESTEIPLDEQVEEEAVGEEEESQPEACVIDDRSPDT

| Compound | pIC50 |
| --- | --- |
| CN1CCN(c2cc(Nc3ccc(CC(N)=O)cc3)c3c(n2)CCC3)CC1 [Example 253, 2-(4-((2-(4-methylpiperazin-1-yl)-6,7-dihydro-5H-cyclopenta[b]pyridin-4-yl)amino)phenyl)acetamide hydrochloride] | < 6.00 |
| C[C@@H]1CN(c2cc(Nc3ccc(CC(N)=O)cc3)c3c(n2)CCC3)CCN1 [Example 255, (R)-2-(4-((2-(3-Methylpiperazin-1-yl)-6,7-dihydro-5H-cyclopenta[b]pyridin-4-yl)amino)phenyl)acetamide hydrochloride] | < 6.00 |
| NC(=O)Cc1ccc(S(=O)(=O)c2cc(-c3cccc(Cl)c3)nc3c2CCC3)cc1 [Example 267, 2-(4-((2-(3-chlorophenyl)-6,7-dihydro-5H-cyclopenta[b]pyridin-4-yl)sulfonyl)phenyl)acetamide] | < 6.00 |

Same assay, conditions: read-out: PDE4D7 IC50; PDE4D7 without asterisk

| pIC50 | Compound |
| --- | --- |
| < 6.00 | OCCc1ccc(Nc2cc(-c3ccsc3)nc3c2CCC3)cc1 [Example 243, 2 2-(4-((2-(Thiophen-3-yl)-6,7-dihydro-5H-cyclopenta[b]pyridin-4-yl)amino)phenyl)ethanol] |
| < 6.00 | NC(=O)Cc1ccc(Nc2cc(-c3ccsc3)nc3c2CCC3)cc1 [Example 244, 2-(4-((2-(Thiophen-3-yl)-6,7-dihydro-5H-cyclopenta[b]pyridin-4-yl)amino)phenyl)acetamide] |
| < 6.00 | NC(=O)Cc1ccc(Nc2cc(C3CCCCC3)nc3c2CCC3)cc1 [Example 250, 2-(4-((2-Cyclohexyl-6,7-dihydro-5H-cyclopenta[b]pyridin-4-yl)amino)phenyl)acetamide hydrochloride] |
| < 6.00 | OCCc1ccc(Nc2cc(C3CCCCC3)nc3c2CCC3)cc1 [Example 251, 2-(4-((2-cyclohexyl-6,7-dihydro-5H-cyclopenta[b]pyridin-4-yl)amino)phenyl)ethanol hydrochloride] |
| < 6.00 | NC(=O)Cc1ccc(Nc2cc(OC3CCCC3)nc3c2CCC3)cc1 [Example 256, 2-(4-((2-(Cyclopentyloxy)-6,7-dihydro-5H-cyclopenta[b]pyridin-4-yl)amino)phenyl)acetamide hydrochloride] |
| < 6.00 | NC(=O)Cc1ccc(C(O)c2cc(-c3cccc(Cl)c3)nc3c2CCC3)cc1 (centres unmarked) [Example 262, 2-(4-((2-(3-Chlorophenyl)-6,7-dihydro-5H-cyclopenta[b]pyridin-4-yl)(hydroxy)methyl)phenyl)acetamide hydrochloride] |
| > 6.00 | CCc1nc(Nc2ccc(CC(N)=O)cc2)cc(-c2cccc(Cl)c2)n1 [Example 265, 2-(4-((6-(3-chlorophenyl)-2-ethylpyrimidin-4-yl)amino)phenyl)acetamide] |
| > 6.00 | O=S1(=O)CCCc2nc(-c3ccccc3)nc(Nc3ccc(CCO)cc3)c21 [Example 268, 4-((4-(2-hydroxyethyl)phenyl)amino)-2-phenyl-7,8-dihydro-6H-thiopyrano[3,2-d]pyrimidine 5,5-dioxide] |
| > 6.00 | NC(=O)Cc1ccc(Nc2nc(-c3ccccc3)nc3c2S(=O)(=O)CCC3)cc1 [Example 269, 2-(4-((5,5-dioxido-2-phenyl-7,8-dihydro-6H-thiopyrano[3,2-d]pyrimidin-4-yl)amino)phenyl)acetamide] |
| > 6.00 | CCCNC(=O)Cc1ccc(Nc2nc(-c3ccccc3)nc3c2S(=O)(=O)CCC3)cc1 [Example 270, 2-(4-((5,5-dioxido-2-phenyl-7,8-dihydro-6H-thiopyrano[3,2-d]pyrimidin-4-yl)amino)phenyl)-N-propylacetamide] |
| > 6.00 | NC(=O)Cc1ccc(Nc2nc(-c3cccc(Cl)c3)nc3c2SCCC3)cc1 [Example 271, 2-(4-((2-(3-chlorophenyl)-7,8-dihydro-6H-thiopyrano[3,2-d]pyrimidin-4-yl)amino)phenyl)acetamide] |
| > 6.00 | OCCc1ccc(Nc2nc(-c3cccc(Cl)c3)nc3c2SCCC3)cc1 [Example 272, 2-(4-((2-(3-chlorophenyl)-7,8-dihydro-6H-thiopyrano[3,2-d]pyrimidin-4-yl)amino)phenyl)ethanol] |
| > 6.00 | O=S1(=O)CCCc2nc(-c3cccc(Cl)c3)nc(Nc3ccc(CCO)cc3)c21 [Example 273, 2-(3-Chlorophenyl)-4-((4-(2-hydroxyethyl)phenyl)amino)-7,8-dihydro-6H-thiopyrano[3,2-d]pyrimidine 5,5-dioxide] |
| > 6.00 | NC(=O)Cc1ccc(Nc2nc(-c3cccc(Cl)c3)nc3c2S(=O)(=O)CCC3)cc1 [Example 274, 2-(4-((2-(3-chlorophenyl)-5,5-dioxido-7,8-dihydro-6H-thiopyrano[3,2-d]pyrimidin-4-yl)amino)phenyl)acetamide] |
| > 6.00 | O=S1(=O)CCCc2nc(-c3cccc(Cl)c3)nc(Cc3ccc(CCO)cc3)c21 [Example 278, 2-(3-chlorophenyl)-4-(4-(2-hydroxyethyl)benzyl)-7,8-dihydro-6H-thiopyrano[3,2-d]pyrimidine 5,5-dioxide] |
| > 6.00 | OCCc1ccc(Nc2nc(-c3cccc(Cl)c3)nc3c2SCC3)cc1 [Example 279, 2-(4-((2-(3-Chlorophenyl)-6,7-dihydrothieno[3,2-d]pyrimidin-4-yl)amino)phenyl)ethanol] |

Second part, the compound before the results:

| Compound | pIC50 |
| --- | --- |
| NC(=O)Cc1ccc(Nc2cc(-c3ccc(Cl)s3)nc3c2CCC3)cc1 [Example 245, 2-(4-((2-(5-Chlorothiophen-2-yl)-6,7-dihydro-5H-cyclopenta[b]pyridin-4-yl)amino)phenyl)acetamide hydrochloride] | < 6.00 |
| NC(=O)Cc1ccc(Nc2cc(C3=CCCC3)nc3c2CCC3)cc1 [Example 246, 2-(4-((2-(Cyclopent-1-en-1-yl)-6,7-dihydro-5H-cyclopenta[b]pyridin-4-yl)amino)phenyl)acetamide hydrochloride] | < 6.00 |
| OCCc1ccc(Nc2cc(C3=CCCC3)nc3c2CCC3)cc1 [Example 248, 2-(4-((2-(Cyclopent-1-en-1-yl)-6,7-dihydro-5H-cyclopenta[b]pyridin-4-yl)amino)phenyl)ethanol hydrochloride] | < 6.00 |
| OCCc1ccc(Nc2cc(C3CCCC3)nc3c2CCC3)cc1 [Example 249, 2-(4-((2-cyclopentyl-6,7-dihydro-5H-cyclopenta[b]pyridin-4-yl)amino)phenyl)ethanol hydrochloride] | < 6.00 |
| OCCc1ccc(Nc2cc(OC3CCCC3)nc3c2CCC3)cc1 [Example 257, 2-(4-((2-(Cyclopentyloxy)-6,7-dihydro-5H-cyclopenta[b]pyridin-4-yl)amino)phenyl)ethanol hydrochloride] | < 6.00 |
| NC(=O)Cc1ccc(Nc2cc(SC3CCCC3)nc3c2CCC3)cc1 [Example 258, 2-(4-((2-(Cyclopentylthio)-6,7-dihydro-5H-cyclopenta[b]pyridin-4-yl)amino)phenyl)acetamide] | < 6.00 |
| NC(=O)Cc1ccc(Nc2cc(S(=O)(=O)C3CCCC3)nc3c2CCC3)cc1 [Example 259, 2-(4-((2-(Cyclopentylsulfonyl)-6,7-dihydro-5H-cyclopenta[b]pyridin-4-yl)amino)phenyl)acetamide] | < 6.00 |
| CC(C)Oc1cc(Nc2ccc(CCO)cc2)c2c(n1)CCC2 [Example 260, 2-(4-((2-Isopropoxy-6,7-dihydro-5H-cyclopenta[b]pyridin-4-yl)amino)phenyl)ethanol hydrochloride] | < 6.00 |
| CC(C)Oc1cc(Nc2ccc(CC(N)=O)cc2)c2c(n1)CCC2 [Example 261, 2-(4-((2-Isopropoxy-6,7-dihydro-5H-cyclopenta[b]pyridin-4-yl)amino)phenyl)acetamide hydrochloride] | < 6.00 |
| OCCc1ccc(C(O)c2cc(-c3cccc(Cl)c3)nc3c2CCC3)cc1 (centres unmarked) [Example 263, 2-(4-((2-(3-Chlorophenyl)-6,7-dihydro-5H-cyclopenta[b]pyridin-4-yl)(hydroxy)methyl)phenyl)ethanol] | < 6.00 |
| CCc1nc(Nc2ccc(CCO)cc2)cc(-c2cccc(Cl)c2)n1 [Example 264, 2-(4-((6-(3-Chlorophenyl)-2-ethylpyrimidin-4-yl)amino)phenyl)ethanol] | > 6.00 |
| OCCCc1cccc(-c2cc(-c3cccc(Cl)c3)nc3c2CCC3)c1 [Example 266, 3-(3-(2-(3-chlorophenyl)-6,7-dihydro-5H-cyclopenta[b]pyridin-4-yl)phenyl)propan-1-ol hydrochloride] | < 6.00 |
| O=C(O)Cc1ccc(Nc2nc(-c3cccc(Cl)c3)nc3c2S(=O)(=O)CCC3)cc1 [Example 275, 2-(4-((2-(3-chlorophenyl)-5,5-dioxido-7,8-dihydro-6H-thiopyrano[3,2-d]pyrimidin-4-yl)amino)phenyl)acetic acid] | > 6.00 |
| CCCNC(=O)Cc1ccc(Nc2nc(-c3cccc(Cl)c3)nc3c2S(=O)(=O)CCC3)cc1 [Example 276, 2-(4-((2-(3-Chlorophenyl)-5,5-dioxido-7,8-dihydro-6H-thiopyrano[3,2-d]pyrimidin-4-yl)amino)phenyl)-N-propylacetamide] | < 6.00 |
| NC(=O)Cc1ccc(Cc2nc(-c3cccc(Cl)c3)nc3c2S(=O)(=O)CCC3)cc1 [Example 277, 2-(4-((2-(3-Chlorophenyl)-5,5-dioxido-7,8-dihydro-6H-thiopyrano[3,2-d]pyrimidin-4-yl)methyl)phenyl)acetamide] | > 6.00 |
| NC(=O)Cc1ccc(Nc2nc(-c3cccc(Cl)c3)nc3c2SCC3)cc1 [Example 280, 2-(4-((2-(3-chlorophenyl)-6,7-dihydrothieno[3,2-d]pyrimidin-4-yl)amino)phenyl)acetamide] | > 6.00 |
| O=S1(=O)CCc2nc(-c3cccc(Cl)c3)nc(Nc3ccc(CCO)cc3)c21 [Example 281, 2-(3-Chlorophenyl)-4-((4-(2-hydroxyethyl)phenyl)amino)-6,7-dihydrothieno[3,2-d]pyrimidine 5,5-dioxide] | > 6.00 |
| NC(=O)Cc1ccc(Nc2nc(-c3cccc(Cl)c3)nc3c2S(=O)(=O)CC3)cc1 [Example 282, 2-(4-((2-(3-chlorophenyl)-5,5-dioxido-6,7-dihydrothieno[3,2-d]pyrimidin-4-yl)amino)phenyl)acetamide] | < 6.00 |
| OCCc1ccc(Nc2nc(C3CCCC3)nc3c2SCCC3)cc1 [Example 283, 2-(4-((2-Cyclopentyl-7,8-dihydro-6H-thiopyrano[3,2-d]pyrimidin-4-yl)amino)phenyl)ethanol] | > 6.00 |
